Columns and labels:
Experiment in all cases: microbe, parasite or virus in culture
Assay type in all cases: cell-based
[1] = test system: SARS-CoV-2 Wuhan strain from VIDO (SB); conditions: Severe acute respiratory syndrome coronavirus 2, Calu-3
[2] = test system: SARS-CoV-2 South Africa (501Y.V2); conditions: Severe acute respiratory syndrome coronavirus 2, Calu-3
SARS-CoV-2 Nigeria (484) = conditions: Severe acute respiratory syndrome coronavirus 2, Calu-3
[3] = test system: SARS-CoV-2 England (VOC 202012/01)

## COc1c2n(c3ccccc13)[C@]1(O)C(=O)N(C)C(=O)[C@]1(O)c1c-2[nH]c2ccc(Cl)cc12 [CA, (11S,15R)-7-chloro-11,15-dihydroxy-23-methoxy-13-methyl-3,13,16-triazahexacyclo[14.7.0.0^2,10.0^4,9.0^11,15.0^17,22]tricosa-1(23),2(10),4(9),5,7,17,19,21-octaene-12,14-dione]
[1]
  IC50: 0.0577 µM
[2]
  IC50: 0.0123 µM
SARS-CoV-2 Nigeria (484)
  IC50: 0.0122 µM
[3]; Severe acute respiratory syndrome coronavirus 2, Calu-3
  IC50: 0.000801 µM
[3]; Severe acute respiratory syndrome coronavirus 2, Calu-3, read-out: ED50
  EC50: ~0.0008 µM
